This note sets out measurements from US20100179151A1, “TRANSDERMAL APPLICATION OF TRIAZINES FOR CONTROLLING INFECTIONS WITH COCCIDIA” (BAYER ANIMAL HEALTH GMBH, priority 2006, published 2010).

Where “and” joins values, the source holds several entries; their conditions need not be identical. Identical values can stand only once. Where only a bound is given, the exact number is not on record here.

What all share (type): in vivo
Data set [1] in a line: Serum concentrations of toltrazuril and ponazuril after pour-on application in calves. The method, then:
(§1) A. Determination of the Serum Concentrations of Toltrazuril and Ponazuril after Pour-On Application in Calves and Rabbits On day 0, the formulation of Example 10 was applied externally at a dose of 20 mg per kg (body weight) to in each case three calves and rabbits. At the points in time specified in the tables, the serum concentrations of toltrazuril and its metabolite ponazuril (toltrazuril sulphone) were determined.

The nature of data set [2]: Serum concentrations of toltrazuril and ponazuril after pour-on application in rabbits. As to conditions: for Ponazuril in mg/l on day after the treatment (serum, metabolite of toltrazuril) / Toltrazuril in mg/l on day after the treatment (serum): individual animals 1-3. As for the experimental part:
as §1

A further data set concerns Isospora suis. The data set can be described thus: Activity of toltrazuril pour-on against artificially provoked infections in suckling pigs with Isospora suis. As to conditions: pour-on treatment. The method, then: B. Activity of Toltrazuril Pour-On Against Artificially Provoked Infections in Suckling Pigs with Isospora suis: 3 groups with 4 to 11 animals were formed. Group A was infected with oocysts and treated with the toltrazuril pour-on formulation of Example 10. Group B was not infected, but treated in the same manner, the dosage rate of group A and B being in each case 20 mg/kg body weight. Group C was infected with oocysts, but not treated with toltrazuril. The success of the treatment was determined by monitoring the live weight of the animals. To this end, the animals were weighed on different days, and the weight gain of the individual animals was determined The results are shown in Table 3.

Data set [3] in a line: Percutaneous absorption in pigs: detection of active substance and main metabolite in serum and body tissues. As to conditions: pour-on, serum, musculature, skin, liver, kidney. An excerpt:
Astonishingly, this is even the case in animal species with little hair. Animals with little hair, such as pigs, ensure the protective function of the outer integument via a thicker epidermis. It is entirely surprising that the active substance is absorbed across this thicker skin and in particular also across the stratum corneum of the skin, which is particularly thick in pigs. Moreover, the active substance can also not be taken up via the large number of hair follicles, as is in the case in other animal species with a thicker coat of hair.

`Cc1cc(-n2c(=O)[nH]c(=O)n(C)c2=O)ccc1Oc1ccc(S(=O)(=O)C(F)(F)F)cc1` [Ponazuril, ponazuril]: the “Ponazuril in mg/l on day after the treatment (serum, metabolite of toltrazuril)” value in data set [1] (day 0, toltrazuril formulation of Example 10 pour-on 20 mg/kg, individual animals 1-3, LoQ 25 μg/l) was “<LoQ”; in data set [1] (day 1, toltrazuril formulation of Example 10 pour-on 20 mg/kg, individual animals 1-3) it was 156 mg/L and 44 mg/L and 146 mg/L; in data set [1] (day 7, toltrazuril formulation of Example 10 pour-on 20 mg/kg, individual animals 1-3), 9715 mg/L and 2735 mg/L and 2615 mg/L; in data set [1] (day 13, toltrazuril formulation of Example 10 pour-on 20 mg/kg, individual animals 1-3), 4506 mg/L and 3440 mg/L and 1905 mg/L; in data set [1] (day 21, toltrazuril formulation of Example 10 pour-on 20 mg/kg, individual animals 1-3), 1394 mg/L and 733 mg/L and 1172 mg/L; in data set [2] (day 1, toltrazuril formulation of Example 10 pour-on 20 mg/kg), 1.79 mg/l and 1.38 mg/l (2×). The “Ponazuril in mg/l on day after the treatment (serum, metabolite of toltrazuril)” value was 4.72 mg/L and 2.63 mg/L and 2.83 mg/L in data set [2] (day 2, toltrazuril formulation of Example 10 pour-on 20 mg/kg); 5.03 mg/L and 4.07 mg/L and 3.42 mg/L in data set [2] (day 3, toltrazuril formulation of Example 10 pour-on 20 mg/kg).
Regarding `Cc1cc(-n2c(=O)[nH]c(=O)n(C)c2=O)ccc1Oc1ccc(SC(F)(F)F)cc1` [Toltrazuril, toltrazuril], the “Percutaneous absorption and metabolism after pour-on application” value in data set [1] was “percutaneously absorbed, and metabolised”; in data set [2] it was “percutaneously absorbed, and metabolised”. The “Toltrazuril in mg/l on day after the treatment (serum)” value in data set [1] (day 0, formulation of Example 10 applied externally (pour-on) 20 mg/kg, individual animals 1-3, LoQ 25 μg/l) was “<LoQ”; in data set [1] (day 1, formulation of Example 10 pour-on 20 mg/kg, individual animals 1-3) it was 2180 mg/L and 650 mg/L and 2281 mg/L; in data set [1] (day 7, formulation of Example 10 pour-on 20 mg/kg, individual animals 1-3), 9246 mg/L and 2042 mg/L and 2275 mg/L; in data set [1] (day 13, formulation of Example 10 pour-on 20 mg/kg, individual animals 1-3), 2194 mg/L and 1806 mg/L and 702 mg/L; in data set [1] (day 21, formulation of Example 10 pour-on 20 mg/kg, individual animals 1-3), 462 mg/L and 371 mg/L and 430 mg/L; in data set [2] (day 1, formulation of Example 10 pour-on 20 mg/kg), 9.06 mg/L and 8.67 mg/L and 9.67 mg/L. In addition, the “Toltrazuril in mg/l on day after the treatment (serum)” value in data set [2] (day 2, formulation of Example 10 pour-on 20 mg/kg) was 10.39 mg/L and 6.03 mg/L and 8.03 mg/L; in data set [2] (day 3, formulation of Example 10 pour-on 20 mg/kg) it was 6.66 mg/L and 5.07 mg/L and 6.70 mg/L. The “Control of massive infection with Isospora suis” value in the data set on Isospora suis was “successfully controlled”. Moreover, in the data set with Isospora suis, the “Elimination of oocysts (parasitological efficacy)” value is on record as “reduced elimination of oocysts”. The “Incidence of diarrhoea (clinical efficacy)” value in the data set with Isospora suis was “reduced incidence of diarrhoea”. The “Weight development (clinical efficacy)” value in the data set with Isospora suis is “better weight development”. In data set [3], the “Percutaneous absorption: active substance and main metabolite detected in body tissues” value is listed as “percutaneous absorption was also demonstrated”.
